We go through three compounds from patent publication EP0106335B1, “Pharmaceutical composition and a method for enhancing the absorption of a pharmaceutically active compound” (Tanabe Seiyaku Co., Ltd., priority 1982, dated 1984).

A short description of this series: Absorption enhancing effect of co-administered diltiazem hydrochloride on plasma drug concentration after oral administration (Experiment 1). The series is classed as in vivo. The settings on record: male beagle dogs fasted for 24 hours. How it is done: Male beagle dogs (body weight: 12 to 14 kg; one group: 3 to 8 beagle dogs) fasted for 24 hours were used in each groups. A drug having an absolute bioavailability of not more than 20 % and diltiazem hydrochloride were administered orally to the beagle dogs. After one week intervals, the drug only was administered orally to the same beagle dogs. The plasma drug concentration was examined at intervals by TCL densito metry if the drug was timepidium bromide; or by high-peformance liquid chromatography if the drug was tipepidine hibenzate or carbazochrome sodium sulfate. Based on the results obtained above, the absorption enhancing effect of diltiazem hydrochloride was calculated by the following formula; [formula]

As to `CN1C2=CC(=O)C(=NNC(N)=O)C=C2CC1S(=O)(=O)O` (stereo not drawn) [Carbazochrome sodium sulfonate, 1-methyl-5-semicarbazono-6-oxo-2,3,5,6-tetrahydroindole-2-sulfonic acid], where the note is “drug 100 mg with diltiazem hydrochloride 60 mg versus drug only, plasma drug concentration by high-performance liquid chromatography”, the Absorption enhancing effect is on record as 1.9.

For the compound `COC1CC(=C(c2cccs2)c2cccs2)C[N+](C)(C)C1` (stereo not drawn) [Timepidium bromide, 1,1-dimethyl-5-methoxy-3-(dithien-2-yl-methylene)-piperidinium halide], where the note is “drug 300 mg with diltiazem hydrochloride 30 mg versus drug only, plasma drug concentration by TLC densitometry”, the Absorption enhancing effect was 2.3.

For `CN1CCCC(=C(c2cccs2)c2cccs2)C1` [Tipepidine hibenzate, 3-(di-2-thienylmethylene)-1-methylpiperidine], for the setting “drug 50 mg with diltiazem hydrochloride 60 mg versus drug only, plasma drug concentration by high-performance liquid chromatography”, the Absorption enhancing effect was determined as 2.1.
